From patent US10294202B2, “Pyrrolidinones as herbicides” (FMC Corporation, priority 2013, dated 2019)

Key:
ryegrass, Italian = assay: Test A pre-/postemergence herbicide test; assay type: in vivo, Lolium multiflorum
In short: (§1)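 Directed soil spray to seeded pots (preemergence) or spray onto one- to two-leaf seedlings 2–10 cm tall (postemergence); loam/sand substrate throughout. Evaluated visually after about 10 days against untreated plants, 0 = no effect, 100 = complete control.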

sedge, umbrella = assay: Test B flooded paddy test; assay type: in vivo, Cyperus difformis; settings: 500 g ai/ha, Flood; scale of 0 to 100 where 0 is no effect and 100 is complete control
In short: (§2)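 Paddy-water application at a 3 cm flood, young plants having two leaves. Water level maintained; greenhouse, 13–15 days; visual 0–100 control rating.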

barnyardgrass [1] = assay: Test A pre-/postemergence herbicide test; assay type: in vivo, Echinochloa crus-galli
In short: as §1

ragweed = assay: Test A pre-/postemergence herbicide test; assay type: in vivo, Ambrosia elatior
In short: as §1

barnyardgrass [2] = assay: Test B flooded paddy test; assay type: in vivo, Echinochloa crus-galli; settings: 500 g ai/ha, Flood; scale of 0 to 100 where 0 is no effect and 100 is complete control
In short: as §2

kochia = assay: Test A pre-/postemergence herbicide test; assay type: in vivo, Kochia scoparia
In short: as §1

wheat = assay: Test A pre-/postemergence herbicide test; assay type: in vivo, Triticum aestivum; settings: Postemergence
In short: as §1

corn = assay: Test A pre-/postemergence herbicide test; assay type: in vivo, Zea mays; settings: Postemergence
In short: as §1

ducksalad = assay: Test B flooded paddy test; assay type: in vivo, Heteranthera limosa; settings: 500 g ai/ha, Flood; scale of 0 to 100 where 0 is no effect and 100 is complete control
In short: as §2

galium = assay: Test A postemergence herbicide test; assay type: in vivo, Galium aparine
In short: (§3)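 Ratings compare treated with untreated plants roughly 10 days after a postemergence application made at the one- to two-leaf stage. Scoring uses 0–100, where 0 means no effect and 100 complete control.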

blackgrass = assay: Test A postemergence herbicide test; assay type: in vivo, Alopecurus myosuroides
In short: as §3

rice = assay: Test B flooded paddy test; assay type: in vivo, Oryza sativa; settings: 500 g ai/ha, Flood; scale of 0 to 100 where 0 is no effect and 100 is complete control
In short: as §2

pigweed = assay: Test A pre-/postemergence herbicide test; assay type: in vivo, Amaranthus retroflexus
In short: as §1

giant foxtail = assay: Test A pre-/postemergence herbicide test; assay type: in vivo, Setaria faberii
In short: as §1

[3] = Postemergence, 125 g ai/ha, visual rating on 0 to 100 scale (0 no effect, 100 complete control), approx. 10 days
[4] = Postemergence, 500 g ai/ha, 0 to 100 scale (0 no effect, 100 complete control)
[5] = Preemergence, 125 g ai/ha, 0 to 100 scale where 0 is no effect and 100 is complete control
[6] = Preemergence, 500 g ai/ha, visual rating on 0 to 100 scale (0 no effect, 100 complete control)
[7] = 125 g ai/ha, visual rating on 0 to 100 scale (0 no effect, 100 complete control), approx. 10 days
[8] = 500 g ai/ha, 0 to 100 scale (0 no effect, 100 complete control)
[9] = 125 g ai/ha, visual rating, 0 to 100 scale, 0 no effect, 100 complete control, approximately 10 days, preemergence
[10] = Postemergence, 125 g ai/ha, 0 to 100 scale, 0 no effect, 100 complete control
[11] = preemergence, 500 g ai/ha, 0 to 100 scale
[12] = 125 g ai/ha, 0 to 100 scale, 0 no effect, 100 complete control

`O=C1NCC(c2cccc(Oc3ccccc3)c2)C1C(=O)Nc1ccccc1F` (stereo not drawn) [Compound 330] was tested, and the “Plant response rating, Ryegrass, Italian” value (ryegrass, Italian; [3]) was 0, the “Plant response rating, Ryegrass, Italian” value (ryegrass, Italian; [4]) was 0 and the “Plant response rating, Ryegrass, Italian” value (ryegrass, Italian; [5]) was 30. For the same compound, the “Ryegrass, Italian plant response rating” value (ryegrass, Italian; [6]) was 40, the “Plant response rating, Sedge, Umbrella” value (sedge, umbrella) was 0 and the “Plant response rating, Barnyardgrass” value (barnyardgrass [1]; [3]) was 60. For the same compound, the “Plant response rating, Barnyardgrass” value (barnyardgrass [1]; [4]) was 60, the “Plant response rating, Barnyardgrass” value (barnyardgrass [1]; [5]) was 60 and the “Barnyardgrass plant response rating” value (barnyardgrass [1]; [6]) was 70. For the same compound, the “Plant response rating, Ragweed” value (ragweed; [3]) was 0, the “Plant response rating, Ragweed” value (ragweed; [4]) was 0 and the “Plant response rating, Ragweed” value (ragweed; [5]) was 0. The “Ragweed plant response rating” value (ragweed; [6]) was 0, the “Plant response rating, Barnyardgrass” value (barnyardgrass [2]) was 0 and the “Plant response rating, Kochia” value (kochia; [3]) was 0. The “Plant response rating, Kochia” value (kochia; [4]) was 0, the “Plant response rating, Kochia” value (kochia; [5]) was 20 and the “Kochia plant response rating” value (kochia; [6]) was 20. For the same compound, the “Plant response rating, Wheat” value (wheat; [7]) was 0, the “Plant response rating, Wheat” value (wheat; [8]) was 0 and the “Plant response rating, Corn” value (corn; [7]) was 0. For the same compound, the “Plant response rating, Corn” value (corn; [8]) was 0, the “Plant response rating, Ducksalad” value (ducksalad) was 100 and the “Plant response rating, Galium” value (galium; [7]) was 20. For the same compound, the “Plant response rating, Galium” value (galium; [8]) was 30, the “Plant response rating, Blackgrass” value (blackgrass; [7]) was 0 and the “Plant response rating, Blackgrass” value (blackgrass; [8]) was 0. For the same compound, the “Plant response rating, Rice” value (rice) was 0, the “Plant response rating, Pigweed” value (pigweed; [3]) was 0 and the “Plant response rating, Pigweed” value (pigweed; [4]) was 0. The “Plant response rating, Pigweed” value (pigweed; [5]) was 0, the “Pigweed plant response rating” value (pigweed; [6]) was 20 and the “Plant response rating, Foxtail, Giant” value (giant foxtail; [3]) was 80. The “Plant response rating, Foxtail, Giant” value (giant foxtail; [4]) was 80, the “Plant response rating, Foxtail, Giant” value (giant foxtail; [5]) was 50 and the “Foxtail, Giant plant response rating” value (giant foxtail; [6]) was 80.
In the case of `CC1(c2ccccc2)CNC(=O)C1C(=O)Nc1ccccc1F` (stereo not drawn) [Compound 301], the “Plant response rating, Ryegrass, Italian” value (ryegrass, Italian; [3]) is reported as 0, the “Plant response rating, Ryegrass, Italian” value (ryegrass, Italian; [4]) is reported as 0 and the “Plant response rating, Ryegrass, Italian” value (ryegrass, Italian; [5]) is reported as 0. For the same compound, the “Ryegrass, Italian plant response rating” value (ryegrass, Italian; [6]) was 0, the “Plant response rating, Sedge, Umbrella” value (sedge, umbrella) was 0 and the “Plant response rating, Barnyardgrass” value (barnyardgrass [1]; [3]) was 0. For the same compound, the “Plant response rating, Barnyardgrass” value (barnyardgrass [1]; [4]) was 0, the “Plant response rating, Barnyardgrass” value (barnyardgrass [1]; [5]) was 0 and the “Barnyardgrass plant response rating” value (barnyardgrass [1]; [6]) was 0. For the same compound, the “Plant response rating, Ragweed” value (ragweed; [3]) was 0, the “Plant response rating, Ragweed” value (ragweed; [4]) was 0 and the “Plant response rating, Ragweed” value (ragweed; [5]) was 0. For the same compound, the “Ragweed plant response rating” value (ragweed; [6]) was 0, the “Plant response rating, Barnyardgrass” value (barnyardgrass [2]) was 0 and the “Plant response rating, Kochia” value (kochia; [3]) was 0. The “Plant response rating, Kochia” value (kochia; [4]) was 0, the “Plant response rating, Kochia” value (kochia; [5]) was 0 and the “Kochia plant response rating” value (kochia; [6]) was 0. The “Plant response rating, Wheat” value (wheat; [7]) was 0, the “Plant response rating, Wheat” value (wheat; [8]) was 0 and the “Plant response rating, Corn” value (corn; [7]) was 0. For the same compound, the “Plant response rating, Corn” value (corn; [8]) was 0, the “Plant response rating, Ducksalad” value (ducksalad) was 0 and the “Plant response rating, Galium” value (galium; [7]) was 0. For the same compound, the “Plant response rating, Galium” value (galium; [8]) was 0, the “Plant response rating, Blackgrass” value (blackgrass; [7]) was 0 and the “Plant response rating, Blackgrass” value (blackgrass; [8]) was 0. For the same compound, the “Plant response rating, Rice” value (rice) was 0, the “Plant response rating, Pigweed” value (pigweed; [3]) was 0 and the “Plant response rating, Pigweed” value (pigweed; [4]) was 0. For the same compound, the “Plant response rating, Pigweed” value (pigweed; [5]) was 0, the “Pigweed plant response rating” value (pigweed; [6]) was 0 and the “Plant response rating, Foxtail, Giant” value (giant foxtail; [3]) was 0. For the same compound, the “Plant response rating, Foxtail, Giant” value (giant foxtail; [4]) was 0, the “Plant response rating, Foxtail, Giant” value (giant foxtail; [5]) was 0 and the “Foxtail, Giant plant response rating” value (giant foxtail; [6]) was 0.
For `O=C1NCC(c2cccc(OC(F)(F)C(F)F)c2)C1C(=O)Nc1ccc(F)cc1F` (racemic) [Compound 122], the “Plant response rating, Ryegrass, Italian” value (ryegrass, Italian; [9]) was 0, the “Plant response rating, Ryegrass, Italian” value (ryegrass, Italian; [10]) was 0 and the “Ryegrass, Italian plant response rating (0 to 100 scale, 0 is no effect, 100 is complete control)” value (ryegrass, Italian; Postemergence, 500 g ai/ha) was 40. The “Plant response rating, Ryegrass, Italian” value (ryegrass, Italian; [11]) was 0, the “Plant response rating, Sedge, Umbrella” value (sedge, umbrella) was 0 and the “Plant response rating, Barnyardgrass” value (barnyardgrass [1]; [9]) was 80. The “Plant response rating, Barnyardgrass” value (barnyardgrass [1]; [10]) was 70, the “Plant response rating, Barnyardgrass” value (barnyardgrass [1]; [4]) was 80 and the “Plant response rating, Barnyardgrass” value (barnyardgrass [1]; preemergence, 500 g ai/ha, 0 to 100 scale (0 no effect, 100 complete control)) was 90. For the same compound, the “Plant response rating, Ragweed” value (ragweed; [9]) was 0, the “Plant response rating, Ragweed” value (ragweed; [10]) was 30 and the “Ragweed plant response rating (0 to 100 scale, 0 is no effect, 100 is complete control)” value (ragweed; Postemergence, 500 g ai/ha) was 70. For the same compound, the “Plant response rating, Ragweed” value (ragweed; [11]) was 60, the “Plant response rating, Barnyardgrass” value (barnyardgrass [2]) was 65 and the “Plant response rating, Kochia” value (kochia; [9]) was 60. The “Plant response rating, Kochia” value (kochia; [10]) was 70, the “Kochia plant response rating (0 to 100 scale, 0 is no effect, 100 is complete control)” value (kochia; Postemergence, 500 g ai/ha) was 70 and the “Plant response rating, Kochia” value (kochia; [11]) was 70. For the same compound, the “Plant response rating, Wheat” value (wheat; [12]) was 50, the “Wheat plant response rating (0 to 100 scale, 0 is no effect, 100 is complete control)” value (wheat; 500 g ai/ha) was 60 and the “Plant response rating, Corn” value (corn; [12]) was 40. For the same compound, the “Plant response rating, Corn” value (corn; [8]) was 60, the “Plant response rating, Ducksalad” value (ducksalad) was 100 and the “Plant response rating, Galium” value (galium; [12]) was 70. For the same compound, the “Galium plant response rating (0 to 100 scale, 0 is no effect, 100 is complete control)” value (galium; 500 g ai/ha) was 80, the “Plant response rating, Blackgrass” value (blackgrass; [12]) was 50 and the “Plant response rating, Blackgrass” value (blackgrass; [8]) was 70. For the same compound, the “Plant response rating, Rice” value (rice) was 15, the “Plant response rating, Pigweed” value (pigweed; [9]) was 50 and the “Plant response rating, Pigweed” value (pigweed; [10]) was 60. The “Pigweed plant response rating (0 to 100 scale, 0 is no effect, 100 is complete control)” value (pigweed; Postemergence, 500 g ai/ha) was 80, the “Plant response rating, Pigweed” value (pigweed; [11]) was 80 and the “Plant response rating, Foxtail, Giant” value (giant foxtail; [9]) was 90. For the same compound, the “Plant response rating, Foxtail, Giant” value (giant foxtail; [10]) was 80, the “Foxtail, Giant plant response rating (0 to 100 scale, 0 is no effect, 100 is complete control)” value (giant foxtail; Postemergence, 500 g ai/ha) was 80 and the “Plant response rating, Foxtail, Giant” value (giant foxtail; [11]) was 90.
With `O=C1NCC(c2cccc(Oc3ccccc3)c2)C1C(=O)Nc1ccccc1Cl` (stereo not drawn) [Compound 334] the “Plant response rating, Ryegrass, Italian” value (ryegrass, Italian; [3]) was 0, the “Plant response rating, Ryegrass, Italian” value (ryegrass, Italian; [4]) was 0 and the “Plant response rating, Ryegrass, Italian” value (ryegrass, Italian; [5]) was 0. For the same compound, the “Ryegrass, Italian plant response rating” value (ryegrass, Italian; [6]) was 0, the “Plant response rating, Sedge, Umbrella” value (sedge, umbrella) was 0 and the “Plant response rating, Barnyardgrass” value (barnyardgrass [1]; [3]) was 0. The “Plant response rating, Barnyardgrass” value (barnyardgrass [1]; [4]) was 0, the “Plant response rating, Barnyardgrass” value (barnyardgrass [1]; [5]) was 0 and the “Barnyardgrass plant response rating” value (barnyardgrass [1]; [6]) was 0. For the same compound, the “Plant response rating, Ragweed” value (ragweed; [3]) was 0, the “Plant response rating, Ragweed” value (ragweed; [4]) was 0 and the “Plant response rating, Ragweed” value (ragweed; [5]) was 0. The “Ragweed plant response rating” value (ragweed; [6]) was 0, the “Plant response rating, Barnyardgrass” value (barnyardgrass [2]) was 30 and the “Plant response rating, Kochia” value (kochia; [3]) was 0. The “Plant response rating, Kochia” value (kochia; [4]) was 0, the “Plant response rating, Kochia” value (kochia; [5]) was 0 and the “Kochia plant response rating” value (kochia; [6]) was 0. The “Plant response rating, Wheat” value (wheat; [7]) was 0, the “Plant response rating, Wheat” value (wheat; [8]) was 0 and the “Plant response rating, Corn” value (corn; [7]) was 0. The “Plant response rating, Corn” value (corn; [8]) was 0, the “Plant response rating, Ducksalad” value (ducksalad) was 40 and the “Plant response rating, Galium” value (galium; [7]) was 0. The “Plant response rating, Galium” value (galium; [8]) was 0, the “Plant response rating, Blackgrass” value (blackgrass; [7]) was 0 and the “Plant response rating, Blackgrass” value (blackgrass; [8]) was 0. The “Plant response rating, Rice” value (rice) was 0, the “Plant response rating, Pigweed” value (pigweed; [3]) was 0 and the “Plant response rating, Pigweed” value (pigweed; [4]) was 0. For the same compound, the “Plant response rating, Pigweed” value (pigweed; [5]) was 0, the “Pigweed plant response rating” value (pigweed; [6]) was 0 and the “Plant response rating, Foxtail, Giant” value (giant foxtail; [3]) was 0. For the same compound, the “Plant response rating, Foxtail, Giant” value (giant foxtail; [4]) was 10, the “Plant response rating, Foxtail, Giant” value (giant foxtail; [5]) was 0 and the “Foxtail, Giant plant response rating” value (giant foxtail; [6]) was 50.
